Measurements as given in the supplement of paper PMC10307832.

Key:
Experiment in all cases: relative viability (nuclei count vs DMSO), 5 days (fraction); higher = more cells survive
Bexarotene + Pemetrexed = compound: C=C(c1ccc(C(=O)O)cc1)c1cc2c(cc1C)C(C)(C)CCC2(C)C [Bexarotene] + Nc1nc2[nH]cc(CCc3ccc(C(=O)N[C@@H](CCC(=O)O)C(=O)O)cc3)c2c(=O)[nH]1 [Pemetrexed] (partner 0.2 µM)
In short: (§1)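 Five library-drug doses in √10 steps were combined with a fixed anchor-drug dose, or a single drug was given alone, by pin tool to lung cancer cell lines in 1536-well plates the day after seeding. Nuclei were stained and counted after 5 days. Relative viability is the nuclei count in treated wells over that in vehicle wells, taken as the median of duplicate plates.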

Bexarotene + Lapatinib = compound: C=C(c1ccc(C(=O)O)cc1)c1cc2c(cc1C)C(C)(C)CCC2(C)C [Bexarotene] + CS(=O)(=O)CCNCc1ccc(-c2ccc3ncnc(Nc4ccc(OCc5cccc(F)c5)c(Cl)c4)c3c2)o1 [Lapatinib] (partner 2 µM)
In short: as §1

Bexarotene + Dasatinib = compound: C=C(c1ccc(C(=O)O)cc1)c1cc2c(cc1C)C(C)(C)CCC2(C)C [Bexarotene] + Cc1nc(Nc2ncc(C(=O)Nc3c(C)cccc3Cl)s2)cc(N2CCN(CCO)CC2)n1 [Dasatinib] (partner 0.075 µM)
In short: as §1

Bexarotene + Crizotinib = compound: C=C(c1ccc(C(=O)O)cc1)c1cc2c(cc1C)C(C)(C)CCC2(C)C [Bexarotene] + C[C@@H](Oc1cc(-c2cnn(C3CCNCC3)c2)cnc1N)c1c(Cl)ccc(F)c1Cl [Crizotinib] (partner 1 µM)
In short: as §1

Cell Line	relative viability (Bexarotene + Pemetrexed; first compound 0.08 µM)	relative viability (Bexarotene + Pemetrexed; first compound 0.253 µM)	relative viability (Bexarotene + Pemetrexed; first compound 0.8 µM)	relative viability (Bexarotene + Pemetrexed; first compound 2.53 µM)	relative viability (Bexarotene + Pemetrexed; first compound 8 µM)	relative viability (Bexarotene + Lapatinib; first compound 0.08 µM)	relative viability (Bexarotene + Lapatinib; first compound 0.253 µM)	relative viability (Bexarotene + Lapatinib; first compound 0.8 µM)	relative viability (Bexarotene + Lapatinib; first compound 2.53 µM)	relative viability (Bexarotene + Lapatinib; first compound 8 µM)	relative viability (Bexarotene + Dasatinib; first compound 0.08 µM)	relative viability (Bexarotene + Dasatinib; first compound 0.253 µM)	relative viability (Bexarotene + Dasatinib; first compound 0.8 µM)	relative viability (Bexarotene + Dasatinib; first compound 2.53 µM)	relative viability (Bexarotene + Dasatinib; first compound 8 µM)	relative viability (Bexarotene + Crizotinib; first compound 0.08 µM)	relative viability (Bexarotene + Crizotinib; first compound 0.253 µM)	relative viability (Bexarotene + Crizotinib; first compound 0.8 µM)	relative viability (Bexarotene + Crizotinib; first compound 2.53 µM)	relative viability (Bexarotene + Crizotinib; first compound 8 µM)
LCLC-97TM1	0.193	0.159	0.172	0.202	0.168	1.05	1.2	1.39	1.15	1.19	1.05	0.795	0.815	0.773	0.822	0.478	0.343	0.576	0.409	0.472
HARA	0.292	0.31	0.217	0.248	0.244	0.747	0.839	0.684	0.77	0.706	0.324	0.268	0.332	0.407	0.567	1.15	0.993	0.885	0.948	0.798
HCC-78	0.903	0.636	0.821	0.919	0.89	0.724	0.7	0.591	0.637	0.668	0.402	0.264	0.278	0.33	0.363	0.317	0.308	0.375	0.305	0.33
NCI-H1666	0.8	0.912	0.736	0.844	0.7	0.753	0.588	0.446	0.512	0.504	0.793	0.826	0.783	0.788	0.77	1.04	0.897	0.769	0.869	0.952
NCI-H2347	0.484	0.424	0.399	0.445	0.462	1.18	1.1	0.669	1.06	0.917	0.358	0.323		0.259	0.244	0.671	0.773	0.597	0.765	0.674
NCI-H838	0.275	0.254	0.272	0.251	0.249	1.05	1.19	0.974	1.14	1.03	0.299	0.301	0.339	0.346	0.381	0.929	0.884	0.891	0.843	0.866
NCI-H2023	0.283	0.251	0.202	0.202	0.196	1.03	1.14	0.979	0.63	0.595	0.628	0.64	0.561	0.522	0.5	0.609	0.591	0.715	0.624	0.494
201T	0.385	0.295	0.322	0.355	0.347	1.01	0.945	1.03	1.02	0.997	0.584	0.569	0.54	0.602	0.565	0.994	0.882	0.974	0.958	0.982
NCI-H1915	0.519	0.492	0.54	0.473	0.439	1.1	0.793	0.979	0.999	1.04	0.391	0.319	0.292	0.297	0.297	0.969	0.948	0.851	0.905	0.849
NCI-H2009	1.09	1.04	1.12	0.973	0.998	0.794	1.14	1.06	1.06	0.999	0.323	0.33	0.301	0.322	0.359	1.16	0.882	1.08	1.08	1.06
BEN	0.883	0.629	0.784	0.637	0.725	0.869	0.51	0.623	0.513	0.66	0.295	0.3	0.326	0.271	0.278	0.786	0.737	0.768	0.708	0.662
PC-14	0.127	0.144	0.145	0.145	0.16	0.347	0.401	0.365	0.327	0.337	0.281	0.305	0.269	0.319	0.274	0.912	1.04	1.04	0.946	0.841
SK-MES-1	1.04	1.12	1.08	0.961	0.735	0.512	0.45	0.565	0.558	0.509	0.283	0.459	0.348	0.401	0.313	0.995	1.06	1.01	1.04	0.925
NCI-H727						1.02	0.887	0.881	0.762	0.811	0.405	0.311	0.388	0.316	0.37	0.856	0.912	0.87	0.677	0.708
